Among the data in ChEMBL document CHEMBL1287767, “Experimental solubility profiling of marketed CNS drugs, exploring solubility limit of CNS discovery candidate” (Bioorg Med Chem Lett, 2010) are solubility values, retold here.

Converted amounts (≈) assume the structure as drawn.

Data set [1] in a line: Solubility of the compound in 0.1 M phosphate buffer at 600 uM at pH 7.4 after 24 hrs by LC/MS/MS analysis. As to conditions: for solubility at 24 h, 600 µM: pH 7.4.
The nature of data set [2]: Solubility of the compound in water. It is filed as physicochemical.
Data set [3] is described as follows: Solubility of the compound at pH 7.4. The data set is classed as physicochemical. The settings on record: buffer.
A short description of data set [4]: Solubility of the compound in water at pH 7. The data set is classed as physicochemical.
Data set [5] can be described thus: Solubility of the compound in water at pH 7.4. The data set is classed as physicochemical.
The nature of data set [6]: Solubility of the compound in PBS at pH 7.4. It is filed as physicochemical.
Data set [7] can be described thus: Solubility of the compound in Mcllvaine buffer at pH 7.4. It is filed as physicochemical. The settings on record: McIlvaine buffer.
Data set [8] is described as follows: Solubility of the compound at pH 7.95. The data set is classed as physicochemical. The settings on record: buffer.
The nature of data set [9]: Solubility of the compound. The data set is classed as physicochemical.

Turning to `CC[C@@H](C(N)=O)N1CCCC1=O`, in data set [1] (0.1 M phosphate buffer), the solubility at 24 h, 600 µM was over 500 µM. In data set [2], this compound gave a solubility of 1000 mg/mL. For the compound `CCCN(CCC)C(=O)Cc1c(-c2ccc(Cl)cc2)nc2ccc(Cl)cn12` [ALPIDEM], the solubility at 24 h, 600 µM in data set [1] (0.1 M phosphate buffer) is 0.75 µM (≈ 0.303 µg/mL). The same compound returned a solubility in data set [3] of 0.1 µM. `Cc1nnc2n1-c1ccc(Cl)cc1C(c1ccccc1)=NC2` [ALPRAZOLAM] showed a solubility in [4] of 0.04 mg/mL (≈ 130 µM). For the same compound, in data set [1] (0.1 M phosphate buffer), the solubility at 24 h, 600 µM came out at 213 µM (≈ 65.8 µg/mL). For the compound `CCCCN1CCCCC1C(=O)Nc1c(C)cccc1C` (stereo unspecified) [BUPIVACAINE], in data set [1] (0.1 M phosphate buffer), the solubility at 24 h, 600 µM is 352 µM (≈ 102 µg/mL). In addition, in data set [5], the solubility amounted to 0.42 mg/mL (≈ 1460 µM). Turning to `CC(NC(C)(C)C)C(=O)c1cccc(Cl)c1` (stereo unspecified) [BUPROPION], the solubility in data set [6] (PBS, read-out: solubility) was 10 mg/mL (≈ 41700 µM). For the same compound, the solubility at 24 h, 600 µM in data set [1] (0.1 M phosphate buffer) stood at 328 µM (≈ 78.6 µg/mL). Consider `O=C1CN=C(c2ccccc2Cl)c2cc([N+](=O)[O-])ccc2N1` [CLONAZEPAM], for which the concentration in solution in data set [1] (buffer) (solubility at 24 h, 600 µM) came to 30.2 µM (≈ 9.53 µg/mL). In data set [2], this compound came in with a solubility of under 0.1 mg/mL.

As to `NCC1(CC(=O)O)CCCCC1` [GABAPENTIN], in [1] (0.1 M phosphate buffer), the solubility at 24 h, 600 µM is over 500 µM. The solubility in data set [3] was 0.441 mg/mL. In data set [6] (buffer), `CC(C)Cc1ccc(C(C)C(=O)O)cc1` (stereo unspecified) [IBUPROFEN] came in with a solubility of 6.02 mg/mL (≈ 29200 µM). Further, the solubility at 24 h, 600 µM in data set [1] (buffer) was over 500 µM. In turn, `COC1=C(OC)C(=O)C(CCCCCCCCCCO)=C(C)C1=O` [IDEBENONE] came in with a solubility at 24 h, 600 µM in [1] (0.1 M phosphate buffer) of 16 µM (≈ 5.42 µg/mL). This compound yielded a solubility in [2] of 23.6 µM. In the case of `Nc1nnc(-c2cccc(Cl)c2Cl)c(N)n1` [LAMOTRIGINE], the solubility in [7] came out at 0.00048 mg/mL (≈ 1.87 µM). Further, the solubility at 24 h, 600 µM in data set [1] (0.1 M phosphate buffer) stood at 307 µM (≈ 78.6 µg/mL). Consider `O=C1Nc2ccc(Cl)cc2C(c2ccccc2Cl)=NC1O` (stereo unspecified) [LORAZEPAM], for which, in data set [1] (buffer), the concentration in solution (solubility at 24 h, 600 µM) was 24 µM (≈ 7.71 µg/mL). The compound also gave a solubility in data set [2] of 0.08 mg/mL. Take `COC(=O)C(c1ccccc1)C1CCCCN1` (stereo unspecified) [METHYLPHENIDATE]: the solubility at 24 h, 600 µM in data set [1] (0.1 M phosphate buffer) worked out at 411 µM (≈ 95.9 µg/mL).

Consider `Cc1ncc2n1-c1ccc(Cl)cc1C(c1ccccc1F)=NC2` [MIDAZOLAM], for which the solubility at 24 h, 600 µM in data set [1] (0.1 M phosphate buffer) was 392 µM (≈ 128 µg/mL). Further, the solubility in [8] amounted to 0.055 mg/mL (≈ 169 µM). Compound `CN1CCN2c3ncccc3Cc3ccccc3C2C1` (stereo unspecified) [MIRTAZAPINE] came in with a solubility at 24 h, 600 µM in data set [1] (0.1 M phosphate buffer) of over 500 µM. On to `O=C(NCCN1CCOCC1)c1ccc(Cl)cc1` [MOCLOBEMIDE], for which the solubility at 24 h, 600 µM in [1] (0.1 M phosphate buffer) was over 500 µM. `NC(=O)C[S+]([O-])C(c1ccccc1)c1ccccc1` (stereo unspecified) [MODAFINIL] yielded a solubility at 24 h, 600 µM in data set [1] (0.1 M phosphate buffer) of over 500 µM. The same measure, in the same setting: then `O=C1CC[C@@]2(O)[C@H]3Cc4ccc(O)c5c4[C@@]2(CCN3CC2CC2)[C@H]1O5` [NALTREXONE], with over 500 µM.

Turning to `CCc1nn(CCCN2CCN(c3cccc(Cl)c3)CC2)c(=O)n1CCOc1ccccc1` [NEFAZODONE], the solubility at 24 h, 600 µM in [1] (0.1 M phosphate buffer) amounted to 9.9 µM (≈ 4.65 µg/mL). For the compound `Cc1cc2c(s1)Nc1ccccc1N=C2N1CCN(C)CC1` [OLANZAPINE], the solubility at 24 h, 600 µM in [1] (0.1 M phosphate buffer) was over 500 µM.

As for `NC(=O)N1c2ccccc2CC(=O)c2ccccc21` [OXCARBAZEPINE], the solubility at 24 h, 600 µM in data set [1] (0.1 M phosphate buffer) was found to be 245 µM (≈ 61.8 µg/mL). In data set [2], this compound showed a solubility of 0.308 mg/mL. In turn, `Fc1ccc([C@@H]2CCNC[C@H]2COc2ccc3c(c2)OCO3)cc1` [PAROXETINE] gave a solubility at 24 h, 600 µM in [1] (0.1 M phosphate buffer) of over 500 µM. In data set [1] (0.1 M phosphate buffer), `CCCN1C[C@H](CSC)C[C@@H]2c3cccc4[nH]cc(c34)C[C@H]21` [PERGOLIDE] gave a solubility at 24 h, 600 µM of 2.1 µM (≈ 0.66 µg/mL). Take `O=C1NC(=O)C(c2ccccc2)(c2ccccc2)N1` [PHENYTOIN]: the solubility at 24 h, 600 µM in [1] (0.1 M phosphate buffer) amounted to 80 µM (≈ 20.2 µg/mL). This compound also yielded a solubility in data set [2] of 0.032 mg/mL.

`CCCN[C@H]1CCc2nc(N)sc2C1` [PRAMIPEXOLE] yielded a solubility at 24 h, 600 µM in [1] (buffer) of over 500 µM. The compound further came in with a solubility in [9] of over 10000 µg/mL.

Turning to `NC(=O)CCC/N=C(\c1ccc(Cl)cc1)c1cc(F)ccc1O` [PROGABIDE], in data set [1] (0.1 M phosphate buffer), the solubility at 24 h, 600 µM was determined as 55.2 µM (≈ 18.5 µg/mL).

With `CCC(=O)O[C@](Cc1ccccc1)(c1ccccc1)[C@H](C)CN(C)C` [PROPOXYPHENE], the solubility at 24 h, 600 µM in data set [1] (0.1 M phosphate buffer) was found to be 250 µM (≈ 84.9 µg/mL).

`Fc1ccccc1C1=NCC(=S)N(CC(F)(F)F)c2ccc(Cl)cc21` [QUAZEPAM] yielded a solubility at 24 h, 600 µM in data set [1] (0.1 M phosphate buffer) of 0.3 µM (≈ 0.116 µg/mL). On to `OCCOCCN1CCN(C2=Nc3ccccc3Sc3ccccc32)CC1` [QUETIAPINE], for which, in data set [1] (buffer), the solubility at 24 h, 600 µM is 310 µM (≈ 119 µg/mL). Turning to `CCOc1ccccc1OC(c1ccccc1)C1CNCCO1` (stereo unspecified) [REBOXETINE], the solubility at 24 h, 600 µM in [1] (0.1 M phosphate buffer) was over 500 µM. With `CCN1CCC[C@H]1CNC(=O)c1c(OC)ccc(Br)c1OC` [REMOXIPRIDE], the solubility at 24 h, 600 µM in data set [1] (0.1 M phosphate buffer) was over 500 µM. With `Cc1nc2n(c(=O)c1CCN1CCC(c3noc4cc(F)ccc34)CC1)CCCC2` [RISPERIDONE], the solubility at 24 h, 600 µM in [1] (0.1 M phosphate buffer) is over 444 µM.

`CN(C)CCc1c[nH]c2ccc(Cn3cncn3)cc12` [RIZATRIPTAN] registered a solubility at 24 h, 600 µM in data set [1] (0.1 M phosphate buffer) of over 500 µM. On the same count and under the same terms, with `CCCN(CCC)CCc1cccc2c1CC(=O)N2` [ROPINIROLE] the figure was over 500 µM. In turn, `O=C1NCCN1CCN1CCC(c2cn(-c3ccc(F)cc3)c3ccc(Cl)cc23)CC1` [SERTINDOLE] yielded a solubility at 24 h, 600 µM in data set [1] (0.1 M phosphate buffer) of 18.1 µM (≈ 7.98 µg/mL). Turning to `CN[C@H]1CC[C@@H](c2ccc(Cl)c(Cl)c2)c2ccccc21` [SERTRALINE], in [1] (buffer, pH 7.4, 24 h, 600 µM), the solubility was found to be 350 µM (≈ 107 µg/mL). `CC(C)CC(N(C)C)C1(c2ccc(Cl)cc2)CCC1` (stereo unspecified) [SIBUTRAMINE] yielded a solubility at 24 h, 600 µM in [1] (0.1 M phosphate buffer) of 143 µM (≈ 40 µg/mL). On to `Nc1c2c(nc3ccccc13)CCCC2` [TACRINE], for which, in [1] (buffer), the solubility at 24 h, 600 µM was over 500 µM. In addition, the solubility in data set [2] worked out at 0.217 mg/mL. Turning to `C=CCN1CCc2nc(N)sc2CC1` [TALIPEXOLE], the solubility at 24 h, 600 µM in data set [1] (0.1 M phosphate buffer) amounted to 133 µM (≈ 27.8 µg/mL). In data set [1] (0.1 M phosphate buffer), `Cc1ccsc1C(=CCCN1CCC[C@@H](C(=O)O)C1)c1sccc1C` [TIAGABINE] had a solubility at 24 h, 600 µM of over 500 µM.

The compound `Cc1ccc(C(=O)c2cc(O)c(O)c([N+](=O)[O-])c2)cc1` [TOLCAPONE] showed a solubility at 24 h, 600 µM in data set [1] (0.1 M phosphate buffer) of over 500 µM. In data set [3], the concentration in solution (solubility) came to 0.115 mg/mL.

Consider `CC1(C)O[C@@H]2[C@@H](CO[C@@]3(COS(N)(=O)=O)OC(C)(C)O[C@@H]23)O1` [TOPIRAMATE], for which the solubility at 24 h, 600 µM in data set [1] (0.1 M phosphate buffer) is over 500 µM. In [2], this compound had a solubility of 9.8 mg/mL. In turn, `COc1cccc(C2(O)CCCCC2CN(C)C)c1` (stereo unspecified) [TRAMADOL] had a solubility at 24 h, 600 µM in [1] (0.1 M phosphate buffer) of over 500 µM.

In turn, `Cc1nnc2n1-c1ccc(Cl)cc1C(c1ccccc1Cl)=NC2` [TRIAZOLAM] gave a solubility at 24 h, 600 µM in data set [1] (0.1 M phosphate buffer) of 35.9 µM (≈ 12.3 µg/mL).

For `CN1[C@@H]2CC[C@H]1C[C@@H](OC(=O)c1c[nH]c3ccccc13)C2` [TROPISETRON], the solubility at 24 h, 600 µM in [1] (0.1 M phosphate buffer) is over 500 µM. `CCCC(CCC)C(=O)O` [VALPROIC ACID] registered a solubility at 24 h, 600 µM in data set [1] (0.1 M phosphate buffer) of over 500 µM.

In data set [1] (0.1 M phosphate buffer), `C=CC(N)CCC(=O)O` (stereo unspecified) [VIGABATRIN] showed a solubility at 24 h, 600 µM of over 500 µM. On to `O=C1Cc2cc(CCN3CCN(c4nsc5ccccc45)CC3)c(Cl)cc2N1` [ZIPRASIDONE], for which the solubility at 24 h, 600 µM in data set [1] (0.1 M phosphate buffer) was 1.05 µM (≈ 0.434 µg/mL). In data set [9], this compound came in with a solubility of 0.08 µg/mL (≈ 0.194 µM).

In [1] (0.1 M phosphate buffer), `CN(C)CCc1c[nH]c2ccc(C[C@H]3COC(=O)N3)cc12` [ZOLMITRIPTAN] returned a solubility at 24 h, 600 µM of over 500 µM.

Turning to `Cc1ccc(-c2nc3ccc(C)cn3c2CC(=O)N(C)C)cc1` [ZOLPIDEM], the solubility at 24 h, 600 µM in data set [1] (0.1 M phosphate buffer) was 260 µM (≈ 79.9 µg/mL). Moreover, the solubility in data set [3] is over 250 µM.

`NS(=O)(=O)Cc1noc2ccccc12` [ZONISAMIDE] gave a solubility at 24 h, 600 µM in data set [1] (0.1 M phosphate buffer) of over 500 µM. For the compound `CN1CCN(C(=O)OC2c3nccnc3C(=O)N2c2ccc(Cl)cn2)CC1` (stereo unspecified) [ZOPICLONE], in data set [1] (0.1 M phosphate buffer), the solubility at 24 h, 600 µM amounted to 219 µM (≈ 85.2 µg/mL).
